Measurements reported in patent US6506580B1, “Splice variants for human 5-HT4 serotonin receptor and their applications, in particular for screening” (Institut National de la Sante et de la Recherche Medicale …, priority 1997, dated 2003).

Key:
Type in all cases: cell-based
h5-HT4(d) = target: T1, h5-HT4(d) (Homo sapiens, UniProt Q13639); assay: cAMP formation in stably transfected CHO cells; conditions: 1 μM, 15 minutes
T1 construct: The entire coding region of the 5-HT4(c) and 5-HT4(d) cDNAs was subcloned; expressed in transfected cells
T1 sequence (Q13639 1-360 isoform Q13639-3): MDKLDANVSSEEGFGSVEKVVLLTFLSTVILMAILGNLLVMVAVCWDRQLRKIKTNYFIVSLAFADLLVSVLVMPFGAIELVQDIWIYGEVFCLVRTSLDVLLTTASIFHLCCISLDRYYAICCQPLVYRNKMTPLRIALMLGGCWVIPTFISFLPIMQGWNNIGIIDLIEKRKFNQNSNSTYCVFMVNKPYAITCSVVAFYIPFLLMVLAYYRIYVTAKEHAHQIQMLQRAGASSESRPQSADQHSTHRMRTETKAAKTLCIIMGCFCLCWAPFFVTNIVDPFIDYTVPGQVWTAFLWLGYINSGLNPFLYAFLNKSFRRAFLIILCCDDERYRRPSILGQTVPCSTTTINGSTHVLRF
Protocol: (§1) The entire coding region of the 5-HT4(c) and 5-HT4(d) cDNAs was subcloned into a mammalian expression vector pRC/CMV (Invitrogen, Carlsbad, Calif.). The CHO cells are stably transfected by electroporation (250 V, 960 μF) with the plasmid PRc/CMV, containing the clone h5-HT4(c) or h5-HT4(d), cleaved with the restriction enzyme Kpn1 (10 μg of plasmid for 10^7 cells). The cells are cultured in HAM-F12 medium supplemented with 10% of heat-inactivated foetal calf serum. […] Twelve days later, the clones are individualized and cultured in 12-well plates. […] For the radioligand binding assays or for the measurement of cAMP formation, the cells transfected with the receptor 5-HT4 cDNA constructs were compared with the “blank”-transfected cells, which were exposed to the unmodified pRC/CMV plasmid.
(§2) To measure intracellular cAMP accumulation, the stably transfected CHO cells were incubated in the HAM-F12 medium containing 5 mM theophylline, 10 mM HEPES and 10 μM pargyline, for 15 minutes at 37° C. in the presence of 5% CO2. […] The reaction was stopped by aspiration of the medium and addition of 500 μl of ice-cold ethanol. After one hour at room temperature, the cells were scraped, and everything was collected and freeze-dried. […] The cAMP was quantified in the supernatant using a radio-immunological assay (E.R.I.A. assay kit from Immunotech, Marseilles). […]

h5-HT4(c) = target: T2, h5-HT4(c) (Homo sapiens, UniProt Q13639); assay: cAMP formation in stably transfected CHO cells; conditions: 1 μM, 15 minutes
T2 construct: The entire coding region of the 5-HT4(c) and 5-HT4(d) cDNAs was subcloned; expressed in transfected cells
T2 sequence (Q13639 1-380 isoform Q13639-4): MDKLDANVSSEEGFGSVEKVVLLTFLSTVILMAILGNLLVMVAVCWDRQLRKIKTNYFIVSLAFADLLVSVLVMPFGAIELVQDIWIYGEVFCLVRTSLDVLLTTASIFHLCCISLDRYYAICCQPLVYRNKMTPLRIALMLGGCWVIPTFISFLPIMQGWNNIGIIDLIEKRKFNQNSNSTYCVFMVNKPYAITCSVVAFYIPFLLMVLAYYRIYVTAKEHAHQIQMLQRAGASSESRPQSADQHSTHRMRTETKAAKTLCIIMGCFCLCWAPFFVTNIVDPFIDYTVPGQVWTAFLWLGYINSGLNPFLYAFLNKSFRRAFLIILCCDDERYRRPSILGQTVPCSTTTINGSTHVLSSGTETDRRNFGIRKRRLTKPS
Protocol: as §1, §2

[1] = tested on: “blank”-transfected COS-7 cells; assay: cAMP formation in control COS-7 cells; conditions: 1 μM
Protocol: (§3) The entire coding region of the cDNAs of 5-HT4(a), 5-HT4(b), 5-HT4(c) and 5-T4(d) was subcloned into a mammalian expression vector pRC/CMV (Invitrogen, Carlsbad, Calif.). The transfections were carried out using polyethyleneimine (PEI) as described in Boussif et al. (1995). The cells were transfected using a mixture of DNA and of PEI in a ratio of 20 μmol of PEI/mg of DNA in 0.9% NaCl. For the radioligand binding assays, the COS-7 cells were seeded into culture flasks of 1.5×10^4 mm^2 one day before the transfection, at a density of 1×10^7 cells/flask, incubated for six hours with plasmid DNA (150 μg/flask) and collected 48 hours after transfection. For the measurement of cAMP formation, the COS-7 cells were seeded onto twelve-well plates one day before transfection, at a density of 5×10^5 cells/well, incubated for six hours with plasmid DNA (4 to 8 μg/well according to the experiments) and assayed 24 hours after the transfection. The cells transfected with the receptor 5-HT4 cDNA constructs were compared with the “blank”-transfected cells, which were exposed to the unmodified pRC/CMV plasmid.
(§4) To measure intracellular cAMP accumulation, the transiently transfected COS-7 cells were incubated, 24 hours after transfection, in Dulbecco's modified Eagle medium (DMEM) containing 5 mM theophylline, 10 mM HEPES and 10 μM pargyline for 15 minutes at 37° C., in the presence of 5% CO2. […] The reaction was stopped by aspiration of the medium and addition of 500 μl of ice-cold ethanol. After one hour at room temperature, the cells were scraped, and everything was collected and freeze-dried. The pellet was resuspended in 350 μl of PBS and centrifuged for 5 min at 300 g. The cAMP was quantified in the supernatant using a radioimmunological assay (E.R.I.A. assay kit from Pasteur Diagnostics 79830). Student's t tests were carried out using the program Quick TEst.

receptor 5-HT4(b) = target: T3, receptor 5-HT4(b) (Homo sapiens, UniProt Q13639); assay: cAMP formation in transiently transfected COS-7 cells; conditions: COS-7, 1 μM agonist, 15 minutes
T3 construct: The entire coding region of the cDNAs of 5-HT4(a), 5-HT4(b), 5-HT4(c) and 5-T4(d) was subcloned; expressed in transfected cells; host or cells: COS-7 cells, transient, pRC/CMV vector; cDNA amplified from human brain and ileum RNA
T3 sequence (Q13639 whole entry): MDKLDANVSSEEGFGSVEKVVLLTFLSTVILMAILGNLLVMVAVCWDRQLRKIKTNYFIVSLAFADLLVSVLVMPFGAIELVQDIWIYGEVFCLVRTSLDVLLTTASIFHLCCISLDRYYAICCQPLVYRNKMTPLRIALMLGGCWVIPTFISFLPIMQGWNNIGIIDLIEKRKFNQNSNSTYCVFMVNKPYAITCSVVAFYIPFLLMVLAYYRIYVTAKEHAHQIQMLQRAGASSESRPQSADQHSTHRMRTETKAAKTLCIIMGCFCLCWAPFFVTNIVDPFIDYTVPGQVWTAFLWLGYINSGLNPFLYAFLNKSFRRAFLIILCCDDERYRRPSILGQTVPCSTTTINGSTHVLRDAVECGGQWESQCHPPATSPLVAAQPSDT
Protocol: as §3, §4

receptor 5-HT4(a) = target: T4, receptor 5-HT4(a) (Homo sapiens, UniProt Q13639); assay: as above; conditions: COS-7, 1 μM agonist, 15 minutes
T4 construct: The entire coding region of the cDNAs of 5-HT4(a), 5-HT4(b), 5-HT4(c) and 5-T4(d) was subcloned; expressed in transfected cells; host or cells: COS-7 cells, transient, pRC/CMV vector
T4 sequence (Q13639 1-387 isoform Q13639-2): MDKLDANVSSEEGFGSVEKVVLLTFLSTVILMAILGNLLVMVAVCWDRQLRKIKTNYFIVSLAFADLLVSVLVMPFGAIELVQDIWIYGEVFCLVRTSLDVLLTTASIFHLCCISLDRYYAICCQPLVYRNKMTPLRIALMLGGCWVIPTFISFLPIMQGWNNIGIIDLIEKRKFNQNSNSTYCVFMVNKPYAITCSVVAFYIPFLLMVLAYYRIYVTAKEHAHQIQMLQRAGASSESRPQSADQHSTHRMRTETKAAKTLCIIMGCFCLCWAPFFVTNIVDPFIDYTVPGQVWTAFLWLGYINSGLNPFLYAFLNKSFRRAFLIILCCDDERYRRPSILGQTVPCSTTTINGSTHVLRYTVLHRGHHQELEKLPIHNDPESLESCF
Protocol: as §3, §4

receptor 5-HT4(d) = receptor 5-HT4(d) (Homo sapiens, UniProt Q13639); assay: as above; design: The entire coding region of the cDNAs of 5-HT4(a), 5-HT4(b), 5-HT4(c) and 5-T4(d) was subcloned; expressed in transfected cells; host or cells: COS-7 cells, transient, pRC/CMV vector; cDNA amplified from human brain and ileum RNA; conditions: COS-7, 1 μM agonist, 15 minutes
receptor 5-HT4(d), sequence (Q13639 1-360 isoform Q13639-3): as the sequence (Q13639 1-360 isoform Q13639-3) above
Protocol: The entire coding region of the cDNAs of 5-HT4(a), 5-HT4(b), 5-HT4(c) and 5-T4(d) was subcloned into a mammalian expression vector pRC/CMV (Invitrogen, Carlsbad, Calif.). The transfections were carried out using polyethyleneimine (PEI) as described in Boussif et al. (1995). The cells were transfected using a mixture of DNA and of PEI in a ratio of 20 μmol of PEI/mg of DNA in 0.9% NaCl. For the radioligand binding assays, the COS-7 cells were seeded into culture flasks of 1.5×10^4 mm^2 one day before the transfection, at a density of 1×10^7 cells/flask, incubated for six hours with plasmid DNA (150 μg/flask) and collected 48 hours after transfection. For the measurement of cAMP formation, the COS-7 cells were seeded onto twelve-well plates one day before transfection, at a density of 5×10^5 cells/well, incubated for six hours with plasmid DNA (4 to 8 μg/well according to the experiments) and assayed 24 hours after the transfection. […]
To measure intracellular cAMP accumulation, the transiently transfected COS-7 cells were incubated, 24 hours after transfection, in Dulbecco's modified Eagle medium (DMEM) containing 5 mM theophylline, 10 mM HEPES and 10 μM pargyline for 15 minutes at 37° C., in the presence of 5% CO2. […] The cAMP was quantified in the supernatant using a radioimmunological assay (E.R.I.A. assay kit from Pasteur Diagnostics 79830). […]

receptor 5-HT4(c) = receptor 5-HT4(c) (Homo sapiens, UniProt Q13639); assay: as above; design: The entire coding region of the cDNAs of 5-HT4(a), 5-HT4(b), 5-HT4(c) and 5-T4(d) was subcloned; expressed in transfected cells; host or cells: COS-7 cells, transient, pRC/CMV vector; cDNA amplified from human brain and ileum RNA; conditions: for increase in the basal cAMP level: 1 μM
receptor 5-HT4(c), sequence (Q13639 1-380 isoform Q13639-4): as the sequence (Q13639 1-380 isoform Q13639-4) above
Protocol: as §3, §4
ML10375 is capable of reducing the cAMP levels in the cells expressing the 5-HT4(c) and 5-HT4(d) isoforms in the absence of any stimulation of the receptor by 5-HT4 agonists. To test the hypothesis that ML10375 may constitute a reverse agonist for the human receptor 5-HT4, the 5-HT4(c) isoform was overexpressed in COS-7 cells in order to increase the frequency of the spontaneously active state of the receptor. The COS-7 cells were transfected with 4 to 8 μg of plasmid DNA per well in order to obtain an increase in the expression levels of the receptor 5-HT4(c). […] (FIG. 6B).

[2] = tested on: “blank”-transfected CHO cells; assay: cAMP formation in control CHO cells; conditions: 1 μM
Protocol: The entire coding region of the 5-HT4(c) and 5-HT4(d) cDNAs was subcloned into a mammalian expression vector pRC/CMV (Invitrogen, Carlsbad, Calif.). The CHO cells are stably transfected by electroporation (250 V, 960 μF) with the plasmid PRc/CMV, containing the clone h5-HT4(c) or h5-HT4(d), cleaved with the restriction enzyme Kpn1 (10 μg of plasmid for 10^7 cells). The cells are cultured in HAM-F12 medium supplemented with 10% of heat-inactivated foetal calf serum. […] Twelve days later, the clones are individualized and cultured in 12-well plates. Clone selection is carried out by studying the stimulation of the cAMP formed in the presence of 1 μM serotonin. For the radioligand binding assays or for the measurement of cAMP formation, the cells transfected with the receptor 5-HT4 cDNA constructs were compared with the “blank”-transfected cells, which were exposed to the unmodified pRC/CMV plasmid.
as §2, with “ethanol.” for “ethanol. After one hour at room temperature, the cells were scraped, and everything was collected and freeze-dried.”

- increase in cAMP concentration (h5-HT4(d)): 118%
- increase in cAMP concentration (h5-HT4(c)): 91%
- increase in cAMP concentration (receptor 5-HT4(b)): 85%
- increase in cAMP concentration (receptor 5-HT4(a)): 82%
- increase in cAMP concentration (receptor 5-HT4(d)): 77%
- increase in cAMP concentration (receptor 5-HT4(c); COS-7, 1 μM agonist, 15 minutes): 64%
- increase in the basal cAMP level (receptor 5-HT4(c); COS-7 transfected with 4 μg of plasmid DNA): 64%
- increase in the basal cAMP level (receptor 5-HT4(c); COS-7 transfected with 8 μg of plasmid DNA): did not significantly increase
Compound: NCCc1c[nH]c2ccc(O)cc12 [5-HT, 5-hydroxytryptamine]
- effect on basal adenylate cyclase activity / basal cAMP levels [1]: no effect
- effect on cAMP [2]: no effect
